Assay results taken from patent US20100022568A1, “ENDOTHELIN RECEPTOR ANTAGONISTS FOR EARLY STAGE IDIOPATHIC PULMONARY FIBROSIS” (Actelion Pharmaceeuticals Ltd., priority 2006, published 2010).
“Also recorded” adds a separate entry of the source. Read-outs that look alike come from different tables or passages of the source. Square brackets hold non-standard residues; d marks the D form. Peptide text beside a SMILES is read from it.

Experiments:
[1] = system: Swiss 3T3 mouse embryonic fibroblasts; test: cells
Description: Experiments were performed on the mouse embryonic fibroblast cell line Swiss 3T3 (Deutsche Sammlung fur Mikroorganismen und Zellen, DSMZ ACC 173). Cells were starved for 24 h in serum-free medium or medium containing 0.5% serum followed by a 24 h incubation with endothelin-1 at a concentration giving approximately 50% or preferably 80% of its maximal efficacy, in presence either of vehicle or of an antagonist at increasing concentrations or an antagonist in combination with Pirfenidone.
Potential cytotoxic effects are excluded by assessing fibroblast proliferation using the MTS reagent (21). Collagen neo-synthesis by fibroblasts is assessed by measuring ^3H-proline incorporation (22).
Using a concentration of ET-1 of 1 nM (EC80), the below mentioned endothelin receptor antagonists were analyzed for antagonistic activity on ET-1-induced collagen neo-synthesis.

[2] = system: rat mesangial cells; conditions: cited from earlier work
[3] = system: patients with IPF; test: BUILD-1 clinical study (phase II/III, placebo-controlled) in IPF patients; assay type: in vivo, human
Source text: BUILD 1 study was a multicentric, randomized, double-blind, placebo-controlled, phase II/III study in IPF patients. […] Treatment failure was defined either as worsening of PFTs or the occurrence of an acute decompensation of IPF. PFT worsening was defined as 2 out of the following 3 criteria • Decrease from baseline ≧10% in Forced vital capacity (FVC) • Decrease from baseline ≧15% in diffusion capacity for carbon monoxide (DLCO). • Decrease from baseline ≧4% in O2 saturation (blood gas) at rest or increase from baseline ≧8 mmHg in alveolar capillary O2 gradient (A-a PO2).
Main inclusion criteria: proven IPF diagnosis <3 years duration, either via a surgical lung biopsy or when not done according to the ATS/ERS consensus criteria (see above). The main inclusion criteria were the presence of FVC ≧50% of predicted value and DLCO ≧30% of predicted value.
The planned treatment period 1 was 12 months. Patients were evaluated at regular interval up to End-of-Period 1 (Month 12 months) and up to the End-of-Study i.e. when the last patient has his/her last visit. The 6MWT and pulmonary function tests were evaluated at each visit.
The analyses were run by a single radiologist who was blinded to the group allocation. Each patient CT was scored for honeycomb as well as ground-glass from the 3 zones of each lung namely upper mid and lower zone. Increment for HC and ground-glass was rounded to the upper 5%.

[4] = system: cell cultures; conditions: cited from earlier work
[5] = system: various animal models of fibrosis; conditions: cited from earlier work
[6] = system: human fibroblasts; conditions: cited from earlier work
[7] = system: norepinephrine-induced aortic remodeling and fibrosis; conditions: cited from earlier work
[8] = system: diabetic rat kidney; conditions: cited from earlier work
[9] = Mus musculus, Swiss-3T3, read-out: IC50 on ET-1-induced collagen neo-synthesis in 3T3 fibroblasts
[10] = patients with surgical lung biopsy, N = 49

Compound `COC(c1ccccc1)(c1ccccc1)[C@H](Oc1nc(C)cc(C)n1)C(=O)O` [Ambrisentan] has an IC50 [1, 9] of 79 nM.
`COc1ccccc1Oc1c(NS(=O)(=O)c2ccc(C)cn2)nc(-c2ccncc2)nc1OC` [Avosentan] showed an IC50 [1, 9] of 330 nM.
For `CC(C)C[C@@H]1NC(=O)[C@@H](C(C)C)NC(=O)[C@@H]2CCCN2C(=O)[C@@H](CC(=O)O)NC(=O)[C@@H](Cc2c[nH]c3ccccc23)NC1=O` [BQ-123] (cyclo(L[dW][dD]P[dV])), the “Fibronectin synthesis induced by ET-1 or angiotensin II” value [2] is listed as “decreased”.
For `COc1ccccc1Oc1c(NS(=O)(=O)c2ccc(C(C)(C)C)cc2)nc(-c2ncccn2)nc1OCCO` [Bosentan], the IC50 [1, 9] was 214 nM, the “Effect on ET-1-induced collagen synthesis” value ([1]; bosentan 1 μM alone, 24 h) was “reverses ET-1 -induced collagen synthesis to baseline” and the “Secondary endpoints related to death or disease worsening” value ([3]; BUILD-1, IPF patients) was “showed efficacy”. For the same compound, the “PFT score: occurrence of death or treatment failure at End-of-Period 1” value ([3]; all treated (n=71 bosentan), placebo 36.1%) was 22.5%, the “Primary endpoint: exercise capacity (6MWT) at End-of-Period 1” value ([3]; all treated, bosentan target 125 mg b.i.d., 12 months) was “did not show an effect; also recorded: did not show improvement” and the “PFTs scores at end of period 1: Improved (number of patients)” value [3, 10] was 2. For the same compound, the “PFTs scores at end of period 1: Worsened (number of patients)” value [3, 10] was 6, the “PFTs scores at end of period 1: Improved (percent of patients)” value ([3]; patients with surgical lung biopsy, N = 49, 95% CL 0.5%, 14.0%, p 0.2424) was 4.1% and the “PFTs scores at end of period 1: Worsened (percent of patients)” value ([3]; patients with surgical lung biopsy, N = 49, 95% CL 4.6%, 24.8%) was 12.2%. For the same compound, the “Prevention of clinical worsening in IPF patients with early disease with low or no honeycomb on HRCT lung scans” value ([3]; post hoc analysis of BUILD 1 HRCT scans) was “mainly effective”, the Collagen synthesis [4] was “decreases” and the Collagenase expression [4] was “increases”. For the same compound, the Extracellular matrix deposition [4] was “inhibits”, the NF-κB expression [4] was “reduces” and the “Anti-fibrotic activity in vivo” value [5] was “potent anti-fibrotic agent”. For the same compound, the “Ability to contract a collagen matrix” value ([6]; cell cultures) was “reduced”, the “Matrix metalloprotease-1 (collagenase) production” value ([6]; cell cultures) was “increased” and the “Fibroblast proliferation induced by ET-1” value ([6]; human fibroblasts) was “attenuated”.
In the case of `CCCNS(=O)(=O)Nc1ncnc(OCCOc2ncc(Br)cn2)c1-c1ccc(Br)cc1` [Compound 1, propyl-sulfamic acid {5-(4-bromo-phenyl)-6-[2-(5-bromo-pyrimidin-2-yloxy)-ethoxy]-pyrimidine-4-yl}-amide], the IC50 [1, 9] is reported as 114 nM.
In the case of `COc1cc(OC)nc(O[C@H](C(=O)O)C(OC)(c2ccccc2)c2ccccc2)n1` [Darusentan], the IC50 [1, 9] is given as 221 nM and the Accumulation of collagen [7] is given as “decreased”.
For `CC[C@H](C)[C@H](NC(=O)[C@H](CC(=O)O)NC(=O)[C@H](CC(C)C)NC(=O)[C@H](Cc1c[nH]cn1)NC(=O)[C@@H]1CSSC[C@H](N)C(=O)N[C@@H](CO)C(=O)N[C@H]2CSSC[C@H](NC(=O)[C@H](CCC(=O)O)NC(=O)[C@H](CCCCN)NC(=O)[C@H](CC(=O)O)NC(=O)[C@H](CCSC)NC(=O)[C@H](CC(C)C)NC(=O)[C@H](CO)NC(=O)[C@H](CO)NC2=O)C(=O)N[C@@H](C(C)C)C(=O)N[C@@H](Cc2ccc(O)cc2)C(=O)N[C@@H](Cc2ccccc2)C(=O)N1)C(=O)N[C@H](C(=O)N[C@@H](Cc1c[nH]c2ccccc12)C(=O)O)[C@@H](C)CC` [ET-1, endothelin-1], the EC50 ([1]; read-out: EC50 (concentration of ET-1 giving 50% of maximal effect) on collagen neo-synthesis, Swiss 3T3 fibroblasts, 24 h incubation) was 0.24 nM.
In the case of `CC(C)C[C@H](NC(=O)N1CCCCCC1)C(=O)N[C@H](Cc1cn(C)c2ccccc12)C(=O)N[C@H](Cc1ccccn1)C(=O)O` [FR1 39317], the “Expression of collagen, laminin and TGF-β mRNA” value [8] is given as “attenuated”.
Compound `Cc1cc2c(cc1CC(=O)c1sccc1S(=O)(=O)Nc1onc(C)c1Cl)OCO2` [Sitaxsentan] has an IC50 [1, 9] of 369 nM.
Compound `CC(=O)c1cc(C)cc(C)c1NC(=O)c1sccc1S(=O)(=O)Nc1onc(C)c1C` [TBC3711] has an IC50 ([1]; read-out: IC50 on ET-1-induced collagen neo-synthesis in 3T3 fibroblasts, ET-1 1 nM (EC80), n >= 2) of 59 nM.
Compound `Cc1ccc(=O)n(-c2ccccc2)c1` [pirfenidone] has an inhibition at 1000 µM ([1]; Mus musculus, Swiss-3T3, 24 h, read-out: Inhibitory effect on collagen neo-synthesis) of 55%.
